Assay results as given in patent US7005429B2, “Method of treating estrogen receptor positive carcinoma with 17 α-dihydroequilin” (Wyeth, priority 1991, dated 2006).
Counter-ions that a name gives are not always drawn.

What was measured:
[1] = test system: DMBA induced mammary carcinoma; experiment: DMBA induced mammary carcinoma in rats, tumor size; format: in vivo, Sprague-Dawley female rats; conditions: rat
Protocol: Rats were treated either with vehicle (control), 17α-dihydroequilin sulfate, or tamoxifen. In addition, one group of rats were ovariectomized after tumor development and then treated with vehicle. The animals were treated for a 4 week period. Tumor volumes were measured weekly.

[2] = test system: MCF-7 (estrogen receptor positive) human breast cancer cell line; experiment: Cell cycle phase distribution by flow cytometric DNA analysis in MCF-7 cells; format: cell-based; conditions: for % G1 / % G2/M / % S: 24 hours; for shift of cells from the resting G1 phase to the proliferative S phase (estrogenic activity): compound alone, 0.1 μM; for prevention of E2 induced proliferation (shift from G1 to S phase): in combination with E2
Protocol: (§1) In the in vitro standard pharmacological test procedure, 17α-dihydroequilin was evaluated as a representative compound in MCF-7 (estrogen receptor positive) and […] (estrogen receptor negative) human breast cancer cell lines to determine the effect of the compounds of this invention on cell proliferation as measured by the percent of the cells present in the G1, S, and G2/M phases of the cell cycle. Briefly, the cell lines were plated in T-25 tissue culture flasks at an initial density of between 50,000 and 100,000 cells/flask and incubated for a period of 24 hours in phenol-red free IMEM medium supplemented with dextran-coated-charcoal stripped fetal bovine serum (10%), glutamine (5 mg/mL) and gentamycin sulfate (2 mg/mL).

[3] = test system: MDA-231 (estrogen receptor negative) human breast cancer cell line; experiment: Cell cycle phase distribution by flow cytometric DNA analysis in MDA-231 cells; format: cell-based; conditions: for % G1 / % G2/M / % S: 24 hours
Protocol: as §1

[4] = test system: estrogen receptor positive MCF-7 human breast cancer cells; conditions: prevents cells from entering the S phase; cited from earlier work
[5] = rat; 200 μg/day for 3 weeks; cited from earlier work
[6] = test compound (0.1 nM) in combination with E2 (1 nM)

C[C@]12CC[C@H]3C(=CCc4cc(OS(=O)(=O)O)ccc43)[C@@H]1CC[C@H]2O [17α-DHEQ-S, 17α-Dihydroequilin sulfate]
percent change of tumor size from week 0, Week 1 ([1]; daily dose 0.5 mg/kg): 47.2% | percent change of tumor size from week 0, Week 2 ([1]; daily dose 0.5 mg/kg): 75.9% | percent change of tumor size from week 0, Week 3 ([1]; daily dose 0.5 mg/kg): 59.4% | percent change of tumor size from week 0, Week 4 ([1]; daily dose 0.5 mg/kg): 111.6% | percent change of tumor size from week 0, Week 1 ([1]; daily dose 5.0 mg/kg): −18.2% | percent change of tumor size from week 0, Week 2 ([1]; daily dose 5.0 mg/kg): −21.2% | percent change of tumor size from week 0, Week 3 ([1]; daily dose 5.0 mg/kg): −8.2% | percent change of tumor size from week 0, Week 4 ([1]; daily dose 5.0 mg/kg): 3.1% | percent change of tumor size from week 0, Week 1 ([1]; daily dose 25.0 mg/kg): −49.7% | percent change of tumor size from week 0, Week 3 ([1]; daily dose 25.0 mg/kg): −51.2% | percent change of tumor size from week 0, Week 4 ([1]; daily dose 25.0 mg/kg): −46.7%

C[C@]12CC[C@@H]3c4ccc(O)cc4CC[C@H]3[C@@H]1CC[C@@H]2O [E2, 17β-estradiol]
shift of cells from the G1 phase to the S phase (cell proliferation) ([2]; E2 alone): caused cell proliferation | % G1 ([2]; E2 alone): 29% | % G2/M ([2]; E2 alone): 5% | % S ([2]; E2 alone): 66% | shift of cells from the G1 phase to the S phase (cell proliferation) ([3]; E2 alone): this shift was not observed | % G1 ([3]; E2 alone): 38% | % G2/M ([3]; E2 alone): 17% | % S ([3]; E2 alone): 45%

C[C@]12CC[C@H]3C(=CCc4cc(O)ccc43)[C@@H]1CC[C@H]2O [17α-dihydroequilin]
shift of cells from the resting G1 phase to the proliferative S phase (estrogenic activity) [2]: did not cause a shift of cells from the resting G1 phase to the proliferative S phase | prevention of E2 induced proliferation (shift from G1 to S phase) [2]: prevented the E2 induced proliferation | % G1 [2, 6]: 42% | % G2/M [2, 6]: 15% | % S [2, 6]: 42% | % G1 [3, 6]: 26% | % G2/M [3, 6]: 13% | % S [3, 6]: 60%

CC/C(=C(\c1ccccc1)c1ccc(OCCN(C)C)cc1)c1ccccc1 [Tamoxifen, Z-1-(4β-dimethylaminoethoxyphenyl) 1,2-diphenyl but-1-ene citratel]
shift of cells from the resting G1 phase to the proliferative S phase (estrogenic activity) [2]: A similar result was observed | prevention of E2 induced proliferation (shift from G1 to S phase) [2]: A similar result was obtained | % G1 [2, 6]: 40% | % G2/M [2, 6]: 14% | % S [2, 6]: 46% | % G1 [3, 6]: 28% | % G2/M [3, 6]: 14% | % S [3, 6]: 58% | reduction in tumor size (in words) ([1]; 4 week treatment): caused a reduction in tumor size | percent change of tumor size from week 0, Week 2 ([1]; daily dose 2.0 mg/kg): −18.7% | percent change of tumor size from week 0, Week 3 ([1]; daily dose 2.0 mg/kg): −28.5% | percent change of tumor size from week 0, Week 4 ([1]; daily dose 2.0 mg/kg): −20.1% | inhibition of E2 stimulated cell growth [4]: inhibit cell E2 stimulated cell growth | accumulation of administered [3H]-E2 in tissue [5]: prevents the accumulation of administered [^3H]-E2 in uterine, vaginal, and mammary tumor tissue
